Assay results published in patent US5747490A, “Alpha 1b adrenergic receptor antagonists” (Merck & Co., Inc., priority 1996, dated 1998).

Experiments:
[1] = molecular target: T1, human alpha 2b adrenergic receptor (Homo sapiens, UniProt P18089); assay: Receptor binding, cloned human alpha 2b; details: for Ki: Table 1, cloned human receptors, read-out: alpha adrenergic receptor subtype binding, 2b
T1 construct: expressed in transfected cells; host or cells: cloned human receptor
T1 sequence (P18089 1-450): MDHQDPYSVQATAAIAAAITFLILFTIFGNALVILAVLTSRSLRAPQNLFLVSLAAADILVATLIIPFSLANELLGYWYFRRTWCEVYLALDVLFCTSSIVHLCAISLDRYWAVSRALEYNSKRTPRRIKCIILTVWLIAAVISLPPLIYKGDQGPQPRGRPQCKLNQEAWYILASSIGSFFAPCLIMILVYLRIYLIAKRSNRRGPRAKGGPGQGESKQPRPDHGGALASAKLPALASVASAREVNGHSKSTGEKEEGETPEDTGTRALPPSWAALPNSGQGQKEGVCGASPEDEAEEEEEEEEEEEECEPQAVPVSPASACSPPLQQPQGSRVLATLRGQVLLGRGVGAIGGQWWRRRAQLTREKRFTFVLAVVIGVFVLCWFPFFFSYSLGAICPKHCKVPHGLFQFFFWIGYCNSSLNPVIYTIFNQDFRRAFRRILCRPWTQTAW
Source text: (§1) This is accomplished according to methods known in the art using other receptors responsible for mediating diverse biological functions. [See e.g., PCT International Application Publication No. WO94/10989, published 26 May 1994; U.S. Pat. No. 5,403,847, issued Apr. 4, 1995, the contents of which are hereby incorporated by reference]. Compounds which are both selective amongst the various human alpha 1 adrenergic receptor subtypes and which have low affinity for other receptors, such as the alpha 2 adrenergic receptors, the β-adrenergic receptors, the muscarinic receptors, the serotonin receptors, and others are particularly preferred. The absence of these non-specific activities may be confirmed by using cloned and expressed receptors in an analogous fashion to the method disclosed herein for identifying compounds which have high affinity for the various human alpha 1 adrenergic receptors. Furthermore, functional biological tests are used to confirm the effects of identified compounds as alpha 1b adrenergic receptor antagonists.
(§2) Receptor binding data for representative compounds of the present invention in cloned human receptors is shown below in Table 1.

[2] = molecular target: T2, human alpha 2c adrenergic receptor (Homo sapiens, UniProt P18825); assay: Receptor binding, cloned human alpha 2c; details: for Ki: Table 1, cloned human receptors, read-out: alpha adrenergic receptor subtype binding, 2c
T2 construct: expressed in transfected cells; host or cells: cloned human receptor
T2 sequence (P18825 1-462): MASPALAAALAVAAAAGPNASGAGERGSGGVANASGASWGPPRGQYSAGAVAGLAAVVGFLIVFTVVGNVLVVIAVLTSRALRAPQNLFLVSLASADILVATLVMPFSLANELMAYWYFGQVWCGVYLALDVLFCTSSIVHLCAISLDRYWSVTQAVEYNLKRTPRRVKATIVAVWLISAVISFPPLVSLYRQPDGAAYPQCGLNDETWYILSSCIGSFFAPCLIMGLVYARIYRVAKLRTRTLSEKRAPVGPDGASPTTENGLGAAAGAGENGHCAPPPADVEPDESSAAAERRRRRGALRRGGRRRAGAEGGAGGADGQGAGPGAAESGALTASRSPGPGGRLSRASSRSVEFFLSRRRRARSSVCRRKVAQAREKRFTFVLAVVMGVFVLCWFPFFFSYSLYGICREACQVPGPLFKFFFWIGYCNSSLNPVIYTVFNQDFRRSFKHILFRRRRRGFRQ
Source text: as §1, §2

[3] = molecular target: T3, human alpha 1d adrenergic receptor (Homo sapiens, UniProt P25100); assay: Selective Binding assay, alpha 1d ([125I]-HEAT competition binding); details: Table 1, cloned human receptors; read-out: alpha adrenergic receptor subtype binding, 1d
T3 construct: host or cells: stably transfected human alpha 1d cell line (ATCC CRL 11138)
T3 sequence (P25100 1-572): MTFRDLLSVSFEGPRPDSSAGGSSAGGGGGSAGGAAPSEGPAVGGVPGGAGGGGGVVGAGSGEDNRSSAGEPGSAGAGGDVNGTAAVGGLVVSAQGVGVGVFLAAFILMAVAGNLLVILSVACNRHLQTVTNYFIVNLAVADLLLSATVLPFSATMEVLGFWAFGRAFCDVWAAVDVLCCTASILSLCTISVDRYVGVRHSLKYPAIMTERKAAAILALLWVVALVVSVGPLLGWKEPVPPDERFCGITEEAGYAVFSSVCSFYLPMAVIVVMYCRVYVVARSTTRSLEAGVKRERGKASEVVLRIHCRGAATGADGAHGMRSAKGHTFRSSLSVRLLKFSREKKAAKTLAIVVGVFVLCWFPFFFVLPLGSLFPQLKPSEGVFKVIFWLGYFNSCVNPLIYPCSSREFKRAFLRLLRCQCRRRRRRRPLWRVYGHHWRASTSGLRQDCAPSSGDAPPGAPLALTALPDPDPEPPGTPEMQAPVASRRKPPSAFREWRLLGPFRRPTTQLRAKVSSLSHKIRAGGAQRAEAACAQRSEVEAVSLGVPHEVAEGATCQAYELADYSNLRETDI
Method: (§3) These competition binding reactions (total volume=200 μl) contained 50 mM Tris-HCl pH 7.4, 5 mM EDTA, 150 mM NaCl, 100 pM [^125 I]-HEAT, membranes prepared from cell lines transfected with the respective alpha 1 subtype expression plasmid and increasing amounts of unlabeled ligand. Reactions were incubated at room temperature for one hour with shaking. Reactions were filtered onto Whatman GF/C glass fiber filters with a Inotec 96 well cell harvester. Filters were washed three times with ice cold buffer and bound radioactivity was determined (Ki).

[4] = molecular target: T4, human alpha 2a adrenergic receptor (Homo sapiens, UniProt P08913); assay: Receptor binding, cloned human alpha 2a; details: for Ki: Table 1, cloned human receptors, read-out: alpha adrenergic receptor subtype binding, 2a
T4 construct: expressed in transfected cells; host or cells: cloned human receptor
T4 sequence (P08913 1-465): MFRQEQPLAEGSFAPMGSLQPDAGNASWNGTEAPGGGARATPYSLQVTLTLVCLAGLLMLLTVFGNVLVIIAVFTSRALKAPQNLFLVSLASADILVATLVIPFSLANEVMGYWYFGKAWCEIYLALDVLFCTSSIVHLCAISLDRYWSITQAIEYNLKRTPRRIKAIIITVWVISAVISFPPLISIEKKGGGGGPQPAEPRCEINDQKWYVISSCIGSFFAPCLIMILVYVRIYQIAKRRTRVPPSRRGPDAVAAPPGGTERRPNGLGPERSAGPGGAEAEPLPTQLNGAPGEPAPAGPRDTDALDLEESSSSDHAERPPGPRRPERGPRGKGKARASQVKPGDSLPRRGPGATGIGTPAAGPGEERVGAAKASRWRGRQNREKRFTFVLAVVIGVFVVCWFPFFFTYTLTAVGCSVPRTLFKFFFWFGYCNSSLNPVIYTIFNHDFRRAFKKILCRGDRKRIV
Source text: as §1, §2

[5] = molecular target: T5, human alpha 1b adrenergic receptor (Homo sapiens, UniProt P35368); assay: Alpha 1b Adrenergic Receptor Binding ([125I]-HEAT competition binding); details: Table 1, cloned human receptors; read-out: alpha adrenergic receptor subtype binding, 1b
T5 construct: host or cells: stably transfected human alpha 1b cell line (ATCC CRL 11139)
T5 sequence (P35368 1-520): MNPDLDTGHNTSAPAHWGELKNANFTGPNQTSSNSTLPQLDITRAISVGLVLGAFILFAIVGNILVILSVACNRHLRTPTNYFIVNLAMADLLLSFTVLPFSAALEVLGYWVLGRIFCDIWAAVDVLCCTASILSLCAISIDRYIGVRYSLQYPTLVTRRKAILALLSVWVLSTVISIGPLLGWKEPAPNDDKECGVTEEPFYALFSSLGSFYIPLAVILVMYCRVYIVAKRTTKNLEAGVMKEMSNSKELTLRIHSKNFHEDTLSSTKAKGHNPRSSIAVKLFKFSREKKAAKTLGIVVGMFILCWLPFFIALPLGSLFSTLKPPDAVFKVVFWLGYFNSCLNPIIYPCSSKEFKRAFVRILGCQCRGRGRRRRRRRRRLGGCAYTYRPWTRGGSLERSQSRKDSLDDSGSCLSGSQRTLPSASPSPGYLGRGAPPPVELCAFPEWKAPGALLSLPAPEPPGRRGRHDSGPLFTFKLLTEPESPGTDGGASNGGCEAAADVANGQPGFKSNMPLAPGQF
Method: as §2
Screening assay: Alpha 1b Adrenergic Receptor Binding
as §3, with “Membranes prepared from the stably transfected human alpha 1b cell line (ATCC CRL 11139) were used to identify compounds that bind to the human alpha 1b adrenergic receptor. These” for “These”, “from the alpha 1b” for “from”, “line” for “lines transfected with the respective alpha 1 subtype expression plasmid”

[6] = molecular target: T6, human alpha 1a adrenergic receptor (Homo sapiens, UniProt P35348); assay: Selective Binding assay, alpha 1a ([125I]-HEAT competition binding); details: Table 1, cloned human receptors; read-out: alpha adrenergic receptor subtype binding, 1a
T6 construct: host or cells: stably transfected human alpha 1a cell line (ATCC CRL 11140)
T6 sequence (P35348 1-466): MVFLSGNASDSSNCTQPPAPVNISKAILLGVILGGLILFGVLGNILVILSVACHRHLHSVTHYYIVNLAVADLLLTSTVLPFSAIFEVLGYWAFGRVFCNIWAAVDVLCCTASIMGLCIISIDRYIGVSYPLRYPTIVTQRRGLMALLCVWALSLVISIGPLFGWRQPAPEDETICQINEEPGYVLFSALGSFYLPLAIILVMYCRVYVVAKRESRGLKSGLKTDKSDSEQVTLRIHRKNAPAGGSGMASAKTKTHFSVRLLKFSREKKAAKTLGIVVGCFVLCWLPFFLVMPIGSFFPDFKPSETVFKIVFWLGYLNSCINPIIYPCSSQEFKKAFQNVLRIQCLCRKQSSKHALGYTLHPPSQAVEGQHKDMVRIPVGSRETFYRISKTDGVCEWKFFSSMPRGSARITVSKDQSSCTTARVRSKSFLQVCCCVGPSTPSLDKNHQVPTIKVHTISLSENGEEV
Method: as §3

inhibition at 1 µM ([1]; read-out: alpha adrenergic receptor subtype binding, 2b, % @ 1 uM) [%] | inhibition at 10 µM ([1]; read-out: alpha adrenergic receptor subtype binding, 2b, % @ 10 uM) [%] | inhibition at 1 µM ([2]; read-out: alpha adrenergic receptor subtype binding, 2c, % @ 1 uM) [%] | inhibition at 10 µM ([2]; read-out: alpha adrenergic receptor subtype binding, 2c, % @ 10 uM) [%] | Ki [3] [nM] | inhibition at 1 µM ([4]; read-out: alpha adrenergic receptor subtype binding, 2a, % @ 1 uM) [%] | inhibition at 10 µM ([4]; read-out: alpha adrenergic receptor subtype binding, 2a, % @ 10 uM) [%] | Ki [5] [nM] | Ki [6] [nM] | Ki [1] [nM] | Ki [2] [nM] | Ki [4] [nM] | Compound
16 | 23 | 42 | 71 | 97 | 23 | 65 | 3.4 | > 3670 |  |  |  | COc1cc2nc(N3CCN(C(=O)c4ccco4)[C@H](C(=O)NC(C)(C)C)C3)nc(N)c2cc1OC [Compound 4a]
 |  |  |  | 111 |  |  | 2.7 | 1190 | > 10000 | 736 | 1170 | COc1cc2nc(N3CCN[C@H](C(=O)NC(C)(C)C)C3)nc(N)c2cc1OC [Compound 3a, (S)-1-(4-Amino-6,7-dimethoxy-2-quinazolinyl)-3-(1,1-dimethylethylamino)carbonyl piperazine]
 |  |  |  | 29 |  |  | 1 | 463 | > 10000 | 715 | 683 | COc1cc2nc(N3CCN(C(=O)OCc4ccccc4)[C@H](C(=O)NC(C)(C)C)C3)nc(N)c2cc1OC [Compound 2a, (S)-1-(4-Amino-6,7-dimethoxy-2-quinazolinyl)-4-[(benzyloxy)carbonyl]-3-(1,1-dimethylethylamino)carbonyl piperazine]
